# What was measured:
# [1] = test system: EDG2; assay: GPCR panel (control), Arrestin, CHO-K1; format: cell-based, human; details: reference agonist
# [2] = test system: EDG4; assay: GPCR panel (control), Arrestin, CHO-K1; format: cell-based, human; details: reference agonist
# [3] = test system: EDG7; assay: GPCR panel (control), Arrestin, CHO-K1; format: cell-based, human; details: reference agonist
# [4] = test system: GPR92; assay: GPCR panel (control), Arrestin, CHO-K1; format: cell-based, human; details: reference agonist
# [5] = test system: ADORA3; assay: GPCR panel (control), Arrestin, CHO-K1; format: cell-based, human; details: reference agonist
# [6] = test system: HRH1; assay: GPCR panel (control), Arrestin, CHO-K1; format: cell-based, human; details: reference agonist
# [7] = test system: GPR119; assay: GPCR panel (control), Arrestin, U2OS; format: cell-based, human; details: reference agonist
# [8] = biological target: CRTH2 (Homo sapiens, UniProt Q9Y5Y4); assay: GPCR panel (control), Arrestin, U2OS; format: cell-based; details: reference agonist
# [9] = test system: HRH3; assay: GPCR panel (control), Arrestin, CHO-K1; format: cell-based, human; details: reference agonist
# [10] = test system: EDG1; assay: GPCR panel (control), Arrestin, CHO-K1; format: cell-based, human; details: reference agonist
# [11] = test system: EDG3; assay: GPCR panel (control), Arrestin, CHO-K1; format: cell-based, human; details: reference agonist
# [12] = test system: EDG5; assay: GPCR panel (control), Arrestin, CHO-K1; format: cell-based, human; details: reference agonist
# [13] = test system: EDG6; assay: GPCR panel (control), Arrestin, CHO-K1; format: cell-based, human; details: reference agonist
# [14] = test system: EDG8; assay: GPCR panel (control), Arrestin, CHO-K1; format: cell-based, human; details: reference agonist
# [15] = test system: ADRA2A; details: reference agonist, CHO-K1, Arrestin
# [16] = test system: ADRA2C; details: reference agonist, CHO-K1, Arrestin
# [17] = test system: CCR2; assay: GPCR panel (control), Arrestin, CHO-K1; format: cell-based, human; details: reference agonist
# [18] = test system: CCR5; assay: GPCR panel (control), Arrestin, CHO-K1; format: cell-based, human; details: reference agonist
# [19] = test system: CCR3; assay: GPCR panel (control), Arrestin, CHO-K1; format: cell-based, human; details: reference agonist
# [20] = test system: CCR7; assay: GPCR panel (control), Arrestin, CHO-K1; format: cell-based, human; details: reference agonist
# [21] = test system: CCR6; assay: GPCR panel (control), Arrestin, CHO-K1; format: cell-based, human; details: reference agonist
# [22] = test system: CXCR3; assay: GPCR panel (control), Arrestin, CHO-K1; format: cell-based, human; details: reference agonist
# [23] = test system: CXCR5; assay: GPCR panel (control), Arrestin, CHO-K1; format: cell-based, human; details: reference agonist
# [24] = test system: CMKLR1; assay: GPCR panel (control), Arrestin, CHO-K1; format: cell-based, human; details: reference agonist
# [25] = test system: GPR1; assay: GPCR panel (control), Arrestin, CHO-K1; format: cell-based, human; details: reference agonist
# [26] = test system: CXCR1; assay: GPCR panel (control), Arrestin, U2OS; format: cell-based, human; details: reference agonist
# [27] = test system: CXCR2; assay: GPCR panel (control), Arrestin, HEK-293; format: cell-based, human; details: reference agonist, CXCR2, HEK-293, Arrestin
# [28] = test system: CXCR6; assay: GPCR panel (control), Arrestin, HEK-293; format: cell-based, human; details: reference agonist, CXCR6, HEK-293, Arrestin
# [29] = test system: CCR8; assay: GPCR panel (control), Arrestin, CHO-K1; format: cell-based, human; details: reference agonist
# [30] = biological target: MRGPRX2 fused to ProLink (PK), in CHO β-arrestin cells (human) (UniProt Q96LB1)
# [31] = biological target: MRGPRX2 in the calcium mobilization assays of the small CXCL14 fragments and mutants (human) (UniProt Q96LB1)
# [32] = biological target: MRGPRX2 fused to ProLink (PK), in CHO β-arrestin cells (human) (UniProt Q96LB1); remark: listed apart in the source
# [33] = biological target: MRGPRX2 in the calcium mobilization assays of the small CXCL14 fragments and mutants (human) (UniProt Q96LB1); remark: listed apart in the source
# [34] = test system: C5AR1; assay: GPCR panel (control), Arrestin, CHO-K1; format: cell-based, human; details: reference agonist
# [35] = test system: C5LR2; assay: GPCR panel (control), Arrestin, CHO-K1; format: cell-based, human; details: reference agonist
# [36] = test system: XCR1; assay: GPCR panel screening, cAMP assay, XCR1; format: cell-based, human; details: reference agonist, XCR1, CHO
# Method: The chemokine receptor XCR1, coupled to Gαi, was tested in cAMP assays.
# Screening the GPCRs panels was performed by DiscoverX (Eurofins) using β-arrestin recruitment assays unless otherwise indicated (for details, see Supplementary Data 2). […]
# chemokine receptors (CCR1, CCR2, CCR3, CCR4, CCR5, CCR6, CCR7, CCR8, CCR9, CCR10, CXCR1, CXCR2, CXCR3, CXCR4, CXCR5, CXCR6, and CX3CR1) versus their corresponding agonist at their determined EC80 (see Supplementary Data 2). CXCL14 was preincubated for 30 min, then the standard agonist for the investigated receptor was added, followed by another incubation for 90 min without washing step in between. The chemokine receptor XCR1, coupled to Gαi, was tested in cAMP assays. The readout was relative luminescence units (RLU). The percentage of inhibition was calculated using the following formula: % Inhibition = 100% x (1 - (mean RLU of CXCL14- mean RLU of vehicle control) / (mean RLU of EC80 control - mean RLU of vehicle control)). For further details see Supplementary Data 2.
# (1 picture or pasted object on this page, not shown here)
# [37] = test system: CCR10; assay: GPCR panel (control), Arrestin, U2OS; format: cell-based, human; details: reference agonist
# [38] = test system: CX3CR1; assay: GPCR panel (control), Arrestin, CHO-K1; format: cell-based, human; details: reference agonist
# [39] = test system: CCR4; assay: GPCR panel (control), Arrestin, CHO-K1; format: cell-based, human; details: reference agonist
# Chain of MRGPRX2 in the calcium mobilization assays of the small CXCL14 fragments and mutants (human) (Q96LB1 whole entry, change not shown, the tested form may be a part): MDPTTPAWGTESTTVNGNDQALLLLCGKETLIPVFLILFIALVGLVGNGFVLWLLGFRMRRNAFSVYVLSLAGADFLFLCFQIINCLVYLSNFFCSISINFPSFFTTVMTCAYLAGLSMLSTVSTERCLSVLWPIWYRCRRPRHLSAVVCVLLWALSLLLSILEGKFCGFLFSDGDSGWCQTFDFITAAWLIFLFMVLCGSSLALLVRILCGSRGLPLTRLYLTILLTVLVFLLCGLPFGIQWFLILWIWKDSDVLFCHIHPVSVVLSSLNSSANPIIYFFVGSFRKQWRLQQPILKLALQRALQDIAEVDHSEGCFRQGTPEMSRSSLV
# Chain of MRGPRX2 fused to ProLink (PK), in CHO β-arrestin cells (human) (Q96LB1 whole entry, the tested form may be a part): as the sequence (Q96LB1 whole entry, change not shown, the tested form may be a part) above
# Chain of CRTH2 (Q9Y5Y4 whole entry): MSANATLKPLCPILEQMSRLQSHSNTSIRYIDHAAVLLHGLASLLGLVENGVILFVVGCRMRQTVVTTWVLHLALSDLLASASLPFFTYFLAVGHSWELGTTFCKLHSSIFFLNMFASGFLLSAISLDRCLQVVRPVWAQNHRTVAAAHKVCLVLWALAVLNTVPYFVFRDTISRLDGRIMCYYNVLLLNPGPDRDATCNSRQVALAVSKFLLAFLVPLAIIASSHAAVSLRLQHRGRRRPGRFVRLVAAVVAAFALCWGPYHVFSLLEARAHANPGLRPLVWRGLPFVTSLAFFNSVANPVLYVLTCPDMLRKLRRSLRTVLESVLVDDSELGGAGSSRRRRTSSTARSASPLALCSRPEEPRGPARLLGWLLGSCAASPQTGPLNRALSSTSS
molecule,measurement,setting,value
CCCCCCCC/C=C\CCCCCCCC(=O)OCC(O)COP(=O)(O)O (centres unmarked) [1-Oleoyl-LPA],EC50,[1],280 nM
same,EC80,[1],23000 nM
CNCCc1cnc(CCC(c2ccccc2)c2ccccc2)[nH]1 [Methylhistaprodifen],EC50,[6],48 nM
same,EC80,[6],11000 nM
CCCCCCCC/C=C\CCCCCCCC(=O)NCCO [OEA],EC50,[7],580 nM
same,EC80,[7],19000 nM
CCCCC[C@H](O)/C=C/[C@H]1C(=O)C[C@H](O)[C@@H]1C/C=C\CCCC(=O)O [Prostaglandin D2],EC50,[8],21 nM
same,EC80,[8],1200 nM
CCCCCCCCCCCCC/C=C/[C@@H](O)[C@@H](N)COP(=O)(O)O [Sphingosine-1-phosphate],EC50,[10],53 nM
same,EC80,[10],1300 nM
same,EC50,[11],190 nM
same,EC80,[11],5200 nM
same,EC50,[12],260 nM
same,EC80,[12],11000 nM
same,EC50,[13],110 nM
same,EC80,[13],4800 nM
same,EC50,[14],26 nM
same,EC80,[14],2400 nM
CCL2,EC50,[17],3.1 nM
same,EC80,[17],200 nM
CCL3,EC50,[18],7.2 nM
same,EC80,[18],310 nM
CCL13,EC50,[19],8.8 nM
same,EC80,[19],210 nM
CCL19,EC50,[20],9.5 nM
same,EC80,[20],230 nM
CCL20,EC50,[21],6.2 nM
same,EC80,[21],710 nM
CXCL11,EC50,[22],9.3 nM
same,EC80,[22],280 nM
CXCL13,EC50,[23],24 nM
same,EC80,[23],1200 nM
Chemerin,EC50,[24],1 nM
same,EC80,[24],93 nM
same,EC50,[25],7.3 nM
same,EC80,[25],170 nM
Interleukin-8,EC50,[26],1.7 nM
same,EC80,[26],300 nM
same,EC50,[27],1.1 nM
same,EC80,[27],230 nM
"CXCL16 (protein, UniProt Q9H2A7 30-254, looked up) C-X-C motif chemokine 16: NEGSVTGSCYCGKRISSDSPPSVQFMNRLRKHLRAYHRCLYYTRFQLLSWSVCGGNKDPWVQELMSCLDLKECGHAYSGIVAHQKHLLPTSPPISQASEGASSDIHTPAQMLLSTLQSTQRPTLPVGSLSSDKELTRPNETTIHTAGHSLAAGPEAGENQKQPEKNAGPTARTSATVPVLCLLAIIFILTAALSYVLCKRRRGQSPQSSPDLPVHYIPVAPDSNT",EC50,[28],1.5 nM
same,EC80,[28],130 nM
"CCL1 (protein, UniProt P22362 24-96, looked up) C-C motif chemokine 1: KSMQVPFSRCCFSFAEQEIPLRAILCYRNTSSICSNEGLIFKLKRGKEACALDTVGWVQRHRKMLRHCPSKRK",EC50,[29],40 nM
same,EC80,[29],1900 nM
STKRFIKWY [CXCL14(57-65)],"Emax, β-arrestin recruitment at MRGPRX2, normalized to the maximal effect of CXCL14",[30],195%
same,"Emax, calcium mobilization at MRGPRX2, normalized to the maximal effect of CXCL14",[31],170%
same,"EC50, β-arrestin recruitment at MRGPRX2",[32],1960 nM
same,"EC50, calcium mobilization at MRGPRX2",[33],301 nM
"Complement C5a (protein, UniProt P01031 678-751, looked up, C5a anaphylatoxin) C5a anaphylatoxin: TLQKKIEEIAAKYKHSVVKKCCYDGACVNNDETCEQRAARISLGPRCIKAFTECCVVASQLRANISHKDMQLGR",EC50,[34],1.3 nM
same,EC80,[34],71 nM
same,EC50,[35],2.2 nM
same,EC80,[35],43 nM
"XCL1/Lymphotactin (protein, UniProt P47992 22-114, looked up) Lymphotactin: VGSEVSDKRTCVSLTTQRLPVSRIKTYTITEGSLRAVIFITKRGLKVCADPQATWVRDVVRSMDRKSNTRNNMIQTKPTGTQQSTNTAVTLTG",EC50,[36],8.8 nM
same,EC80,[36],480 nM
"CCL27 (protein, UniProt Q9Y4X3 25-112, looked up) C-C motif chemokine 27: FLLPPSTACCTQLYRKPLSDKLLRKVIQVELQEADGDCHLQAFVLHLAQRSICIHPQNPSLSQWFEHQERKLHGTLPKLNFGMLRKMG",EC50,[37],65 nM
same,EC80,[37],1700 nM
"Fractalkine (protein, UniProt P78423 25-397, looked up) Fractalkine: QHHGVTKCNITCSKMTSKIPVALLIHYQQNQASCGKRAIILETRQHRLFCADPKEQWVKDAMQHLDRQAAALTRNGGTFEKQIGEVKPRTTPAAGGMDESVVLEPEATGESSSLEPTPSSQEAQRALGTSPELPTGVTGSSGTRLPPTPKAQDGGPVGTELFRVPPVSTAATWQSSAPHQPGPSLWAEAKTSEAPSTQDPSTQASTASSPAPEENAPSEGQRVWGQGQSPRPENSLEREEMGPVPAHTDAFQDWGPGSMAHVSVVPVSSEGTPSREPVASGSWTPKAEEPIHATMDPQRLGVLITPVPDAQAATRRQAVGLLAFLGLLFCLGVAMFTYQSLQGCPRKMAGEMAEGLRYIPRSCGSNSYVLVPV",EC50,[38],0.13 nM
same,EC80,[38],15 nM
"CCL22 (protein, UniProt O00626 25-93, looked up) C-C motif chemokine 22: GPYGANMEDSVCCRDYVRYRLPLRVVKHFYWTSDSCPRPGVVLLTFRDKEICADPRVPWVKMILNKLSQ",EC50,[39],2.4 nM
same,EC80,[39],120 nM

# — PMC10771525 (Communications Biology, 2024)
